Measurements reported in patent US12180187B2, “1-phenyl-5-azinylpyrazolyl-3-oxyalkyl acids and their use for controlling unwanted plant growth” (BAYER AKTIENGESELLSCHAFT, priority 2019, dated 2024).

Columns and labels:
DIGSA [1] = assay: Pre-emergence action at 320 g/ha against DIGSA; type: in vivo, Digitaria sanguinalis; conditions: visual scoring after about 3 weeks vs untreated controls
Procedure, shortened: (§1)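 Visual scoring in percent against untreated controls, about 3 weeks after treatment, where 100% means dead plants and 0% means no difference. Compounds were applied as aqueous suspension or emulsion (WP or EC, plus 0.5% additive) onto soil covering freshly sown seeds, at 600 l/ha water.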

ECHCG = assay: Post-emergence action at 320 g/ha against ECHCG; type: in vivo, Echinochloa crus-galli; conditions: dosage 320 g/ha, visual rating about 3 weeks after treatment vs untreated controls (100% = plants died)
Text: (§2) Accordingly, the compounds of the invention have good herbicidal action against a broad spectrum of weed grasses and broad-leaved weeds and are therefore suitable for controlling unwanted vegetation by the post-emergence method. • b) Seeds of monocotyledonous and dicotyledonous weeds and crop plants are placed in sandy loam in plastic or organic planting pots, covered with soil and cultivated in a greenhouse under controlled growth conditions. 2 to 3 weeks after sowing, the test plants are treated at the one-leaf stage. The compounds of the invention, formulated in the form of wettable powders (WP) or as emulsion concentrates (EC), are then sprayed onto the green parts of the plants as aqueous suspension or emulsion with addition of 0.5% additive at a water application rate of 600 l/ha (converted). After the test plants have been kept in the greenhouse under optimum growth conditions for about 3 weeks, the activity of the preparations is rated visually in comparison to untreated controls. For example, 100% activity=the plants have died, 0% activity=like control plants. Tables 39 to 49 below show the effects of selected compounds of the general formula (I) according to Tables 1 and 2 on various harmful plants and at an application rate corresponding to 320 g/ha, which were obtained by the experimental procedure mentioned above.

ALOMY [2] = assay: Pre-emergence action at 320 g/ha against ALOMY; type: in vivo, Alopecurus myosuroides; conditions: scored visually after about 3 weeks vs untreated controls (100% = plants have died)
Procedure, shortened: as §1

POLCO [3] = assay: Post-emergence action at 320 g/ha against POLCO; type: in vivo, Fallopia convolvulus (Polygonum convolvulus); conditions: visual rating about 3 weeks after treatment vs untreated controls
Text: as §2

VIOTR [4] = assay: Post-emergence action at 320 g/ha against VIOTR; type: in vivo, Viola tricolor; conditions: visual rating about 3 weeks after treatment vs untreated controls
Text: as §2

AVEFA [5] = assay: Post-emergence action at 320 g/ha against AVEFA; type: in vivo; conditions: visual rating about 3 weeks after treatment vs untreated controls
Text: as §2

ALOMY [6] = assay: Post-emergence action against ALOMY, 320 g/ha; type: in vivo, Alopecurus myosuroides; conditions: dosage 320 g/ha, visual rating about 3 weeks after treatment vs untreated controls (100% = plants died)
Procedure, shortened: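 Activity is a visual rating against untreated controls, with 0% like control and 100% dead plants, made about 3 weeks after treatment. Plants grown in sandy loam in the greenhouse received a post-emergence spray at the one-leaf stage of 320 g/ha, formulated as WP or EC with 0.5% additive in 600 l/ha water.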

AVEFA [7] = assay: Pre-emergence action at 320 g/ha against AVEFA; type: in vivo; conditions: visual scoring after about 3 weeks vs untreated controls
Procedure, shortened: as §1

VERPE = assay: Pre-emergence action at 320 g/ha against VERPE; type: in vivo, Veronica persica; conditions: visual scoring after about 3 weeks vs untreated controls
Procedure, shortened: as §1

ECHGC = assay: Pre-emergence action at 320 g/ha against ECHGC; type: in vivo, Echinochloa crus-galli; conditions: visual scoring after about 3 weeks vs untreated controls
Procedure, shortened: as §1

LOLRI = assay: Pre-emergence action at 320 g/ha against LOLRI; type: in vivo, Lolium rigidum; conditions: visual scoring after about 3 weeks vs untreated controls
Procedure, shortened: as §1

AMARE [8] = assay: Post-emergence action at 320 g/ha against AMARE; type: in vivo, Amaranthus retroflexus; conditions: visual rating about 3 weeks after treatment vs untreated controls
Text: as §2

POLCO [9] = assay: Pre-emergence action at 320 g/ha against POLCO; type: in vivo, Fallopia convolvulus (Polygonum convolvulus); conditions: visual scoring after about 3 weeks vs untreated controls
Procedure, shortened: as §1

PHBPU [10] = assay: Post-emergence action at 320 g/ha against PHBPU; type: in vivo; conditions: visual rating about 3 weeks after treatment vs untreated controls
Text: as §2

DIGSA [11] = assay: Post-emergence action at 320 g/ha against DIGSA; type: in vivo, Digitaria sanguinalis; conditions: dosage 320 g/ha, visual rating about 3 weeks after treatment vs untreated controls (100% = plants died)
Text: as §2

SETVI [12] = assay: Post-emergence action at 320 g/ha against SETVI; type: in vivo, Setaria viridis; conditions: visual rating about 3 weeks after treatment vs untreated controls
Text: as §2

ABUTH = assay: Post-emergence action at 320 g/ha against ABUTH; type: in vivo, Abutilon theophrasti; conditions: visual rating about 3 weeks after treatment vs untreated controls
Text: as §2

AMARE [13] = assay: Pre-emergence action at 320 g/ha against AMARE; type: in vivo, Amaranthus retroflexus; conditions: visual scoring after about 3 weeks vs untreated controls
Procedure, shortened: as §1

PHBPU [14] = assay: Pre-emergence action at 320 g/ha against PHBPU; type: in vivo; conditions: visual scoring after about 3 weeks vs untreated controls
Text: b) Seeds of monocotyledonous and dicotyledonous weed plants and crop plants are placed in plastic or organic planting pots and covered with soil. The compounds of the invention, formulated in the form of wettable powders (WP) or as emulsion concentrates (EC), are then applied onto the surface of the covering soil as aqueous suspension or emulsion with addition of 0.5% additive at a water application rate of 600 l/ha (converted). After the treatment, the pots are placed in a greenhouse and kept under good growth conditions for the trial plants. After about 3 weeks, the effect of the preparations is scored visually in comparison with untreated controls as percentages. For example, 100% activity=the plants have died, 0% activity=like control plants. Tables 13 to 26 below show the effects of selected compounds of the general formula (I) on various harmful plants and at an application rate corresponding to 320 g/ha, which were obtained by the experimental procedure mentioned above.

MATIN = assay: Pre-emergence action at 320 g/ha against MATIN; type: in vivo, Tripleurospermum inodorum (Matricaria inodora); conditions: visual scoring after about 3 weeks vs untreated controls
Procedure, shortened: as §1

SETVI [15] = assay: Pre-emergence action at 320 g/ha against SETVI; type: in vivo, Setaria viridis; conditions: visual scoring after about 3 weeks vs untreated controls
Procedure, shortened: as §1

VIOTR [16] = assay: Pre-emergence action at 320 g/ha against VIOTR; type: in vivo, Viola tricolor; conditions: dosage 320 g/ha
Procedure, shortened: as §1

COC(=O)COc1nn(-c2ccccc2F)c(-c2ccc(F)nc2)c1Br [VII-001]
90%: Post-emergence action against AVEFA in % (AVEFA [5]) | Post-emergence action against ALOMY (ALOMY [6]) | Pre-emergence action against AVEFA in % (AVEFA [7]) | Post-emergence action against AMARE in % (AMARE [8]) | Pre-emergence action against POLCO in % (POLCO [9]) | Post-emergence action against PHBPU in % (PHBPU [10]) | Post-emergence action at 320 g/ha against DIGSA in % (DIGSA [11]) | Post-emergence action against SETVI in % (SETVI [12]) | Pre-emergence action against MATIN in % (MATIN)
80%: Post-emergence action against POLCO in % (POLCO [3]) | Post-emergence action against VIOTR in % (VIOTR [4]) | Post-emergence action against ABUTH in % (ABUTH)
100%: Pre-emergence action against DIGSA in % (DIGSA [1]) | Post-emergence action at 320 g/ha against ECHCG in % (ECHCG) | Pre-emergence action at 320 g/ha against ALOMY in % (ALOMY [2]) | Pre-emergence action against VERPE in % (VERPE) | Pre-emergence action against ECHGC in % (ECHGC) | Pre-emergence action against LOLRI in % (LOLRI) | Pre-emergence action against AMARE in % (AMARE [13]) | Pre-emergence action against PHBPU in % (PHBPU [14]) | Pre-emergence action against SETVI in % (SETVI [15]) | Pre-emergence action against VIOTR in % (VIOTR [16])
